# Tested on: symmetric dimethylation of arginine (SDMA) of PRMT5 substrates in MCF-7 cells
# Assay: PRMT5 Cell Target Engagement (TE) Assay
# Assay type: cell-based
# Settings: Homo sapiens, MCF7, 72 h; MCF-7 cells treated for 3 days; nuclear SDMA by high content imaging; top concentration 10000 nM
# How it was run: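 MCF-7 cells treated 3 days at 37 °C with 10-point 1:3 titration from 10000 nM top. Fixed cells stained with anti-SDMA antibody plus Alexa488 secondary and Hoechst; nuclear fluorescence quantified by high-content imaging versus DMSO wells. EC50 from 4-parameter fit of percent fluorescence vs log concentration.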
row,EC50,Structure (SMILES)
1,0.8 nM,"Cc1nc(N)c2ccn([C@@H]3C[C@@H]4[C@H](Cc5ccc6cc(Cl)c(N)nc6c5)CC[C@]4(O)[C@H]3O)c2n1 [Example 31, (1S,2R,3aR,4S,6aR)-2-(4-amino-2-methyl-7H-pyrrolo[2,3-d]pyrimidin-7-yl)-4-((2-amino-3-chloroquinolin-7-yl)methyl) hexahydropentalene-1,6a(1H)-diol 2,2,2-trifluoroacetate]"
2,42.2 nM,"Cc1nc(C)c2ccn([C@@H]3O[C@@H]4[C@H](Cc5ccc6cc(F)c(N)nc6c5)CC[C@]4(O)[C@H]3O)c2n1 [Example 90, (2R,3R,3aS,6S,6aR)-6-((2-amino-3-fluoroquinolin-7-yl)methyl)-2-(2,4-dimethyl-7H-pyrrolo[2,3-d]pyrimidin-7-yl)hexahydro-3aH-cyclopenta[b]furan-3,3a-diol]"
3,0.3 nM,"Nc1nc2cc(C[C@@H]3CC[C@@]4(O)[C@@H]3C[C@@H](n3cc(F)c5c(N)ncnc53)[C@@H]4O)ccc2cc1Br [Example 42, (1S,2R,3aR,4S,6aR)-4-((2-amino-3-bromoquinolin-7-yl)methyl)-2-(4-amino-5-fluoro-7H-pyrrolo[2,3-d]pyrimidin-7-yl)hexahydropentalene-1,6a(1H)-diol]"
4,2.9 nM,"C[C@]1(CCc2ccc3cc4c(nc3c2)NCC4)C[C@@H](n2ccc3c(N)ncnc32)[C@H](O)[C@@H]1O [Example 126, (1S,2R,3S,5R)-5-(4-amino-7H-pyrrolo[2,3-d]pyrimidin-7-yl)-3-(2-(2,3-dihydro-1H-pyrrolo[2,3-b]quinolin-7-yl)ethyl)-3-methylcyclopentane-1,2-diol]"
5,18 nM,C[C@@]1(O)[C@@H](COc2ccc3cc(Br)c(N)nc3c2)C[C@@H](n2ccc3c(Cl)ncnc32)[C@@H]1O [Example 1]
6,0.5 nM,"Cc1ncnc2c1ccn2[C@@H]1O[C@@H]2[C@H](Cc3ccc4ccc(N)nc4c3)CC[C@]2(O)[C@H]1O [Example 107, (2R,3R,3aS,6S,6aR)-6-((2-aminoquinolin-yl)methyl)-2-(4-methyl-7H-pyrrolo[2,3-d]pyrimidin-7-yl)hexahydro-2H-cyclopenta[b]furan-3,3a-diol]"
7,37.5 nM,"Cc1ncnc2c1ccn2[C@@H]1O[C@@H]2[C@@H](Oc3ccc4cc(F)c(N)nc4c3)CC[C@]2(O)[C@H]1O [Example 86, (2R,3R,3aS,6S,6aR)-6-((2-amino-3-fluoroquinolin-7-yl)oxy)-2-(4-methyl-7H-pyrrolo[2,3-d]pyrimidin-7-yl)hexahydro-3aH-cyclopenta[b]furan-3,3a-diol]"
8,11.1 nM,"CNc1ncnc2c1c(F)cn2[C@@H]1O[C@@H]2[C@H](Cc3ccc4cc(Br)c(N)nc4c3)CC[C@]2(O)[C@H]1O [Example 96, (2R,3R,3aS,6S,6aR)-6-((2-amino-3-bromoquinolin-7-yl)methyl)-2-(5-fluoro-4-(methylamino)-7H-pyrrolo[2,3-d]pyrimidin-7-yl)hexahydro-3aH-cyclopenta[b]furan-3,3a-diol]"
9,7.4 nM,"C[C@]1(COc2ccc3cc(Br)c(N)nc3c2)C[C@@H](n2ccc3c(N)ncnc32)[C@H](O)[C@@H]1O [Example 100, (1S,2R,3R,5R)-3-(((2-amino-3-bromoquinolin-7-yl)oxy)methyl)-5-(4-amino-7H-pyrrolo[2,3-d]pyrimidin-7-yl)-3-methylcyclopentane-1,2-diol]"
10,5.9 nM,"Cc1ncnc2c1ccn2[C@@H]1C[C@](C)(CCc2ccc3cc(Br)c(N)nc3c2)[C@@H](O)[C@H]1O [Example 109, (1S,2R,3S,5R)-3-(2-(2-amino-3-bromoquinolin-7-yl)ethyl)-3-methyl-5-(4-methyl-7H-pyrrolo[2,3-d]pyrimidin-7-yl)cyclopentane-1,2-diol]"
11,25.3 nM,"Cc1ncnc2c1ccn2[C@@H]1O[C@@H]2[C@H](Cc3ccc4cc(C(F)(F)F)c(N)nc4c3)CC[C@]2(O)[C@H]1O [Example 88, (2R,3R,3aS,6S,6aR)-6-((2-amino-3-(trifluoromethyl)quinolin-7-yl)methyl)-2-(4-methyl-7H-pyrrolo[2,3-d]pyrimidin-7-yl)hexahydro-3aH-cyclopenta[b]furan-3,3a-diol]"
12,0.8 nM,"Cc1nc(N)c2ccn([C@@H]3C[C@@H]4[C@H](Cc5ccc6cc(F)c(N)nc6c5)CC[C@]4(O)[C@H]3O)c2n1 [Example 32, (1S,2R,3aR,4S,6aR)-2-(4-amino-2-methyl-7H-pyrrolo[2,3-d]pyrimidin-7-yl)-4-((2-amino-3-fluoroquinolin-7-yl)methyl) hexahydropentalene-1,6a(1H)-diol 2,2,2-trifluoroacetate]"
13,20 nM,"C#C[C@@]1(O)[C@@H](COc2ccc3cc(Br)c(N)nc3c2)O[C@@H](n2ccc3c(N)ncnc32)[C@@H]1O [Example 3, (2R,3S,4R,5R)-2-(((2-amino-3-bromoquinolin-7-yl)oxy)methyl)-5-(4-amino-7H-pyrrolo[2,3-d]pyrimidin-7-yl)-3-ethynyltetrahydrofuran-3,4-diol]"
14,1.2 nM,"Nc1nc2cc(C[C@@H]3CC[C@@]4(O)[C@@H]3O[C@@H](n3ccc5c(N)ncnc53)[C@@H]4O)ccc2cc1Cl [Example 67, (2R,3R,3aS,6S,6aR)-6-((2-amino-3-chloroquinolin-7-yl)methyl)-2-(4-amino-7H-pyrrolo[2,3-d]pyrimidin-7-yl)hexahydro-3aH-cyclopenta[b]furan-3,3a-diol]"
15,10.6 nM,"Cc1ncnc2c1ccn2[C@@H]1C[C@@H]2[C@@H](Cc3ccc4cc(F)c(N)nc4c3)CC[C@]2(O)[C@H]1O [Example 18, (1S,2R,3aR,4R,6aR)-4-((2-amino-3-fluoroquinolin-7-yl)methyl)-2-(4-methyl-7H-pyrrolo[2,3-d]pyrimidin-7-yl)hexahydropentalene-1,6a(1H)-diol]"
16,1.7 nM,"Nc1nc2cc(C[C@@H]3CC[C@@]4(O)[C@@H]3O[C@@H](n3ccc5c(N)ncnc53)[C@@H]4O)cc(F)c2cc1F [Example 29, (2R,3R,3aS,6S,6aR)-6-[(2-amino-3,5-difluoroquinolin-7-yl)methyl]-2-(4-amino-7H-pyrrolo[2,3-d]pyrimidin-7-yl)hexahydro-3aH-cyclopenta[b]furan-3,3a-diol]"

# Further lines, the compound ahead of its results:
row,Structure (SMILES),EC50
1,"Cc1cn([C@@H]2O[C@@H]3[C@H](Cc4ccc5cc(Br)c(N)nc5c4)OC[C@]3(O)[C@H]2O)c2ncnc(N)c12 [Example 135, (2R,3R,3aS,6S,6aR)-6-((2-amino-3-bromoquinolin-7-yl)methyl)-2-(4-amino-5-methyl-7H-pyrrolo[2,3-d]pyrimidin-7-yl)tetrahydrofuro[3,4-b]furan-3,3a(4H)-diol]",0.6 nM
2,"Cc1cn([C@@H]2C[C@@H]3[C@H](Cc4ccc5cc(F)c(N)nc5c4)CC[C@]3(O)[C@H]2O)c2ncnc(N)c12 [Example 38, (1S,2R,3aR,4S,6aR)-4-((2-amino-3-fluoroquinolin-7-yl)methyl)-2-(4-amino-5-methyl-7H-pyrrolo[2,3-d]pyrimidin-7-yl)hexahydropentaiene-1,6a(1H)-diol]",0.6 nM
3,"C[C@@]1(O)[C@@H](COc2ccc3cccnc3c2)O[C@@H](n2ccc3c(N)ncnc32)[C@@H]1O [Example 99, (2R,3S,4R,5R)-5-(4-amino-7H-pyrrolo[2,3-d]pyrimidin-7-yl)-3-methyl-2-((quinolin-7-yloxy)methyl)tetrahydrofuran-3,4-diol]",202 nM
4,"Nc1nc2cc(C[C@@H]3CC[C@@]4(O)[C@@H]3O[C@@H](n3ccc5c(N)ncnc53)[C@@H]4O)ccc2cc1C(F)F [Example 137, (2R,3R,3aS,6S,6aR)-6-((2-amino-3-(difluoromethyl)quinolin-7-yl)methyl)-2-(4-amino-7H-pyrrolo[2,3-d]pyrimidin-7-yl)hexahydro-2H-cyclopenta[b]furan-3,3a-diol]",0.8 nM
5,"Cc1nc(N)nc2c1ccn2[C@@H]1O[C@@H]2[C@H](Cc3ccc4cc(Br)c(N)nc4c3)CC[C@]2(O)[C@H]1O [Example 127, (2R,3R,3aS,6S,6aR)-6-((2-amino-3-bromoquinolin-7-yl)methyl)-2-(2-amino-4-methyl-7-pyrrolo[2,3-d]pyrimidin-7-yl)hexahydro-3aH-cyclopenta[b]furan-3,3a-diol]",0.8 nM
6,"CC(C)(O)c1ncnc2c1ccn2[C@@H]1O[C@@H]2[C@@H](Oc3ccc4cc(Br)c(N)nc4c3)CC[C@]2(O)[C@H]1O [Example 78, (2R,3R,3aS,6S,6aR)-6-1(2-amino-3-bromoquinolin-7-yl)oxyl-2-[4-(2-hydroxypropan-2-yl)-7H-pyrrolo[2,3-d]pyrimidin-7-yl]hexahydro-3aH-cyclcopenta[b]furan-3,3a-diol]",5990 nM
7,"Nc1nc2cc(O[C@H]3CC[C@@]4(O)[C@@H]3O[C@@H](n3cc(-c5ccccc5)c5c(N)ncnc53)[C@@H]4O)ccc2cc1Br [Example 49, (2R,3R,3aS,6S,6aR)-6-[(2-amino-3-bromoquinolin-7-yl)oxy]-2-(4-amino-5-phenyl-7H-pyrrolo[2,3-d]pyrimidin-7-yl)hexahydro-3aH-cyclcopenta[b]furan-3,3a-diol]",13 nM
8,"C[C@]1(COc2ccc3cc(Br)c(N)nc3c2)O[C@@H](n2ccc3c(N)ncnc32)[C@H](O)[C@@H]1O [Example 13, (2R,3S,4R,5R)-2-(((2-amino-3-bromoquinolin-7-yl)oxy)methyl)-5-(4-amino-7H-pyrrolo[2,3-d]pyrimidin-7-yl)-2-methyltetrahydrofuran-3,4-diol]",14 nM
9,"Cc1ncnc2c1ccn2[C@@H]1O[C@@H]2[C@H](Cc3cnc4cc(F)c(N)nc4c3)CC[C@]2(O)[C@H]1O [Example 25, (2R,3R,3aS,6S,6aR)-6-((6-amino-7-fluoro-1,5-naphthyridin-3-yl)methyl)-2-(4-methyl-7H-pyrrolo[2,3-d]pyrimidin-7-yl)hexahydro-3aH-cyclopenta[b]furan-3,3a-diol, 3HCl]",258 nM
10,"Cc1ncnc2c1ccn2[C@@H]1O[C@@H]2[C@@H](Oc3ccc4cc(Cl)c(N)nc4c3)CC[C@]2(O)[C@H]1O [Example 112, (2R,3R,3aS,6S,6aR)-6-((2-amino-3-chloroquinolin-7-v)oxy)-2-(4-methyl-7H-pyrrolo[2,3-d]pyrimidin-7-yl)hexahydro-2H-cyclopenta[b]furan-3,3a-diol]",4 nM
